{"source": "patent US20240415840A1", "about": "“BICYCLIC AMINES AS CDK2 INHIBITORS” (Incyte Corporation, priority 2023, published 2024)", "key": {"CDK2/Cyclin E1": {"molecular_target": "T1, CDK2/Cyclin E1 (Homo sapiens, UniProt P24941)", "T1 construct": "enzyme activity assays utilize full-length human CDK2; GST (N); purchased Carna 04-165; host or cells: baculovirus expression system", "test": "CDK2/Cyclin E1 HTRF enzyme activity assay", "type": "biochemical", "details": "1 mM ATP", "description": "CDK2/Cyclin E1 enzyme activity assays utilize full-length human CDK2 co-expressed as N-terminal GST-tagged protein with FLAG-Cyclin E1 in a baculovirus expression system (Carna Product Number 04-165). Assays were conducted in white 384-well polystyrene plates in a final reaction volume of 8 μL. CDK2/Cyclin E1 (0.25 nM) was incubated with the compounds of the Examples (40 nL serially diluted in DMSO) in the presence of ATP (50 μM or 1 mM) and 50 nM ULight™-labeled eIF4E-binding protein 1 (THR37/46) peptide (PerkinElmer) in assay buffer (containing 50 mM HEPES pH 7.5, 1 mM EGTA, 10 mM MgCl2, 2 mM DTT, 0.05 mg/mL BSA, and 0.01% Tween 20) for 60 minutes at room temperature. The reactions were stopped by the addition of EDTA and Europium-labeled anti-phospho-4E-BP1 antibody (PerkinElmer), for a final concentration of 15 mM and 1.5 nM, respectively. HTRF signals were read after 1 hour at room temperature on a PHERAstar FS plate reader (BMG Labtech). Data was analyzed with Genedata Screener software using a three or four parameter dose response curve to determine IC50 for each compound."}, "[1]": {"test": "In vitro rat plasma unbound fraction", "type": "in vitro ADME"}, "[2]": {"test": "In vivo rat CNS protocol: brain, CSF and plasma concentrations after IV dosing", "description": "The brain, CSF, and plasma concentrations of the compound of Example 1 (8-isopropoxy-7-(1H-pyrazol-4-yl)-N-(tetrahydro-2H-pyran-4-yl)-[1,2,4]triazolo[1,5-c]pyrimidin-2-amine) were determined in rats after IV dosing. The compound of Example 1 was formulated in 10% dimethylacetamide in acidified saline. Male rats (n=4) were given an IV bolus of the compound of Example 1 at 2.0 mg/kg, followed by an IV infusion at 1.2 mg/kg/h for 4 hours. Blood samples were collected at 2 hours and 4 hours in tubes containing EDTA as anticoagulant and centrifuged to obtain plasma. At 4 hours, brain and CSF samples were also collected. The CSF samples were mixed with blank rat plasma (1:1 v/v) to minimize adsorption of the compound of Example 1 to the collection device. Brain, CSF, and plasma samples were frozen and concentrations of the compound of Example 1 were determined by LC-MS/MS."}, "BCRP": {"molecular_target": "T2, BCRP (Homo sapiens, UniProt Q9UNQ0)", "T2 construct": "in vitro permeability studies using Caco-2 cells; endogenous in cells; host or cells: Caco-2 cells", "T2 sequence (Q9UNQ0 1-655)": "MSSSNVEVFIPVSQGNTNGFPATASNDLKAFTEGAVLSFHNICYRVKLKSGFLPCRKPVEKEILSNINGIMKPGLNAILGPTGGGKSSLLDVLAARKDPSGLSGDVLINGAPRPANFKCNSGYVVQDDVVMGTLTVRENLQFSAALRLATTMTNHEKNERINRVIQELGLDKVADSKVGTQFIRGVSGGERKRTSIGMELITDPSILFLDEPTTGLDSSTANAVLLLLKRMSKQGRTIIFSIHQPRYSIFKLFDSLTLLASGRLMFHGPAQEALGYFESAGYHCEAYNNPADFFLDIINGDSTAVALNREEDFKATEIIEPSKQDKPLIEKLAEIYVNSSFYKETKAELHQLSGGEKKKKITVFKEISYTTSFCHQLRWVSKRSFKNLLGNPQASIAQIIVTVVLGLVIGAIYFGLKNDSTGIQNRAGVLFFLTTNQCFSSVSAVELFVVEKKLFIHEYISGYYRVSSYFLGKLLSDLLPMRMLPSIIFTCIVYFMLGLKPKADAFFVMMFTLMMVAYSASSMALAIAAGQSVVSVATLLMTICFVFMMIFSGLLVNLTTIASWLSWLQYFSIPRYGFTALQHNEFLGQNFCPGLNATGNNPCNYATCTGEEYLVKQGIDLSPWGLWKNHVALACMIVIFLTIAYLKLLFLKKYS", "test": "Efflux transporter substrate assessment (Caco-2 studies), BCRP", "type": "in vitro ADME"}, "P-gp": {"molecular_target": "T3, P-gp (Homo sapiens, UniProt P08183)", "T3 construct": "in vitro permeability studies using Caco-2 cells; endogenous in cells; host or cells: Caco-2 cells", "T3 sequence (P08183 whole entry)": "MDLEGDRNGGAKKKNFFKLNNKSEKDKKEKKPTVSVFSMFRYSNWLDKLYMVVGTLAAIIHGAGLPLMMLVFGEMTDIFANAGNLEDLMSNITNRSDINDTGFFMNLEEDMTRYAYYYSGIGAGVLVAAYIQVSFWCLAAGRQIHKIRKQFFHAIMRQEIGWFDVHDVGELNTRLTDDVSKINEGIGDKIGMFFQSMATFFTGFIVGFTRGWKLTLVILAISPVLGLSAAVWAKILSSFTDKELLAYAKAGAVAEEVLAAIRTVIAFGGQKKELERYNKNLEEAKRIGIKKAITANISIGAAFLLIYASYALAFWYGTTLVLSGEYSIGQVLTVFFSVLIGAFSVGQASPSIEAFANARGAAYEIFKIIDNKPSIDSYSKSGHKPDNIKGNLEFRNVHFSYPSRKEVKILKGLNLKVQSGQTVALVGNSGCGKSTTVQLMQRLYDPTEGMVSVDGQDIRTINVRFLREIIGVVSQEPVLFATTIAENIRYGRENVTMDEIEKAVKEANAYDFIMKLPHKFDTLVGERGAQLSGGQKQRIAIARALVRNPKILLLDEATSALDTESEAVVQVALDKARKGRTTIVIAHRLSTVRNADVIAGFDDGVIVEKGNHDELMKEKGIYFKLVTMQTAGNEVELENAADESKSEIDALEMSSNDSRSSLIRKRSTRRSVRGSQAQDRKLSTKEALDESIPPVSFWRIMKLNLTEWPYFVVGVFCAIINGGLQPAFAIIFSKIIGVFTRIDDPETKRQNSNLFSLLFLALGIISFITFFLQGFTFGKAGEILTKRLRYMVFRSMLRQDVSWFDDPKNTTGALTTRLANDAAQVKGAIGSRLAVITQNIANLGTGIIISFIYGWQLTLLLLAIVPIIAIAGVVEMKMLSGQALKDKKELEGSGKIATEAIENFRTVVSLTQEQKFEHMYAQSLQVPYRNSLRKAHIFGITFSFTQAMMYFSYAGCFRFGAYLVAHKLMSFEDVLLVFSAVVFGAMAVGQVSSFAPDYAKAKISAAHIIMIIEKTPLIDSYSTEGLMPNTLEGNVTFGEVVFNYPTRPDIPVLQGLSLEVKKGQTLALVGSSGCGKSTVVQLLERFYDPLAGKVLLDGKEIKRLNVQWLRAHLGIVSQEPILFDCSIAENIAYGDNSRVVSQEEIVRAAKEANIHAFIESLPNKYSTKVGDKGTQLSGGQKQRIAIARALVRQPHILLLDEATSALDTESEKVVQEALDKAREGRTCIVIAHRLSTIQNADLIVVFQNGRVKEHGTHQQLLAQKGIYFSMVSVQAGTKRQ", "test": "Efflux transporter substrate assessment (Caco-2 studies), P-gp", "type": "in vitro ADME"}, "Caco-2 cells": {"test_system": "Caco-2 cells", "test": "In vitro permeability studies using Caco-2 cells", "type": "in vitro ADME"}, "[3]": {"test": "In vitro permeability studies using Caco-2 cells", "type": "in vitro ADME", "details": "human, A-B"}, "[4]": {"details": "male rats (n=4), IV infusion, 4 h, mean ± SD"}}, "note": "Values joined by “and” are separate entries in the source; they are usually repeats but may differ in a detail not shown here. Equal entries are not always repeated. Where two headings read alike, the source gives them in different places.", "data": [{"molecule": "CC(Oc1c(-c2cn[nH]c2)ncn2nc(NC3CCOCC3)nc12)C(F)(F)F", "note": "(single isomer, unassigned) [Example 7]", "values": [{"measurement": "IC50", "setting": "CDK2/Cyclin E1", "result": "≤ 10", "unit": "nM"}]}, {"molecule": "CC(C)Oc1c(-c2cn[nH]c2)ncn2nc(NC3CCOCC3)nc12", "note": "[Example 1, 8-Isopropoxy-7-(1H-pyrazol-4-yl)-N-(tetrahydro-2H-pyran-4-yl)-[1,2,4]triazolo[1,5-c]pyrimidin-2-amine]", "values": [{"measurement": "fraction unbound", "setting": "[1]", "result": 0.57}, {"measurement": "Brain/Plasma (%)", "setting": "[2]; 4 h, individual rats 1001-1004", "result": "60% and 89% and 73%"}, {"measurement": "CSF/unbound plasma concentration (%)", "setting": "[2]; 4 h, individual rats 1001-1004", "result": "37% and 42% and 38%"}, {"measurement": "Plasma free (unbound) concentration, 4 h", "setting": "[2]; calculated using rat plasma in vitro unbound fraction, 4 h, individual rats 1001-1004", "result": "1.45 µM and 1.22 µM and 1.70 µM"}, {"measurement": "Plasma total concentration, 4 h, mean", "setting": "[2]; male rats (n=4), IV bolus 2.0 mg/kg then IV infusion 1.2 mg/kg/h for 4 h, 4 h, mean ± SD", "result": "2.41 ± 0.46", "unit": "µM"}, {"measurement": "Brain concentration, 4 h, mean", "setting": "[2]; [4]", "result": "1740 ± 370", "unit": "nM"}, {"measurement": "CSF concentration, 4 h, mean", "setting": "[2]; [4]", "result": "0.579 ± 0.062", "unit": "µM"}, {"measurement": "Plasma total concentration, 2 h", "setting": "[2]; male rats, IV bolus 2.0 mg/kg then IV infusion 1.2 mg/kg/h for 4 h, 2 h, individual rats 1001-1004", "result": "1.44 µM and 1.41 µM and 1.71 µM"}, {"measurement": "Plasma total concentration, 4 h", "setting": "[2]; male rats, IV bolus 2.0 mg/kg then IV infusion 1.2 mg/kg/h for 4 h, 4 h, individual rats 1001-1004", "result": "2.55 µM and 2.14 µM and 2.98 µM"}, {"measurement": "concentration at 4 h", "setting": "[2]; male rats, IV infusion, 4 h, individual rats 1001-1004, read-out: Brain concentration, 4 h", "result": "1520 nM and 1910 nM and 2170 nM"}, {"measurement": "concentration at 4 h", "setting": "[2]; male rats, IV infusion, 4 h, individual rats 1001-1004, read-out: CSF concentration, 4 h", "result": "541 nM and 517 nM and 653 nM"}, {"measurement": "Kp at 4 h", "setting": "[2]; male, rat, CSF / unbound plasma, intravenous, 4 h, individual rats 1001-1004, read-out: CSF/unbound plasma concentration (%)", "result": 0.54}, {"measurement": "Kp at 4 h", "setting": "[2]; male, rat, CSF / unbound plasma, intravenous, 4 h, mean, read-out: CSF/unbound plasma concentration (%), mean", "result": 0.43}, {"measurement": "concentration at 4 h", "setting": "[2]; male, rat, CSF, iv, male rats (n=4), IV infusion, 4 h, mean ± SD, read-out: CSF concentration, 4 h, mean", "result": "579 ± 62", "unit": "nM"}, {"measurement": "concentration at 4 h", "setting": "[2]; male, rat, CSF, iv, male rats, IV infusion, 4 h, individual rats 1001-1004, read-out: CSF concentration, 4 h", "result": 604, "unit": "nM"}, {"measurement": "Kp at 4 h", "setting": "[2]; male, rat, brain / plasma, intravenous, 4 h, individual rats 1001-1004, read-out: Brain/Plasma (%)", "result": 0.7}, {"measurement": "Kp at 4 h", "setting": "[2]; male, rat, brain / plasma, intravenous, 4 h, mean, read-out: Brain/Plasma (%), mean", "result": 0.73}, {"measurement": "concentration at 4 h", "setting": "[2]; male, rat, brain, iv, male rats (n=4), IV infusion, 4 h, mean ± SD, read-out: Brain concentration, 4 h, mean", "result": "1740 ± 370", "unit": "nM"}, {"measurement": "concentration at 4 h", "setting": "[2]; male, rat, brain, iv, male rats, IV infusion, 4 h, individual rats 1001-1004, read-out: Brain concentration, 4 h", "result": 1360, "unit": "nM"}, {"measurement": "concentration at 4 h", "setting": "[2]; male, rat, plasma (unbound), intravenous, calculated using rat plasma in vitro unbound fraction, 4 h, individual rats 1001-1004, read-out: Plasma free (unbound) concentration, 4 h", "result": 1110, "unit": "nM"}, {"measurement": "concentration at 4 h", "setting": "[2]; male, rat, plasma (unbound), intravenous, calculated using rat plasma in vitro unbound fraction, 4 h, mean ± SD, read-out: Plasma free (unbound) concentration, 4 h, mean", "result": "1370 ± 260", "unit": "nM"}, {"measurement": "concentration at 2 h", "setting": "[2]; male, rat, plasma, intravenous, male rats (n=4), IV bolus 2.0 mg/kg then IV infusion 1.2 mg/kg/h for 4 h, 2 h, mean ± SD, read-out: Plasma total concentration, 2 h, mean", "result": "1460 ± 180", "unit": "nM"}, {"measurement": "concentration at 4 h", "setting": "[2]; male, rat, plasma, intravenous, male rats (n=4), IV bolus 2.0 mg/kg then IV infusion 1.2 mg/kg/h for 4 h, 4 h, mean ± SD, read-out: Plasma total concentration, 4 h, mean", "result": "2410 ± 460", "unit": "nM"}, {"measurement": "concentration at 2 h", "setting": "[2]; male, rat, plasma, intravenous, male rats, IV bolus 2.0 mg/kg then IV infusion 1.2 mg/kg/h for 4 h, 2 h, individual rats 1001-1004, read-out: Plasma total concentration, 2 h", "result": 1270, "unit": "nM"}, {"measurement": "concentration at 4 h", "setting": "[2]; male, rat, plasma, intravenous, male rats, IV bolus 2.0 mg/kg then IV infusion 1.2 mg/kg/h for 4 h, 4 h, individual rats 1001-1004, read-out: Plasma total concentration, 4 h", "result": 1950, "unit": "nM"}, {"measurement": "penetration across the rat blood-brain barrier (in words)", "setting": "[2]; rat, IV infusion", "result": "readily penetrates across the rat blood-brain barrier"}, {"measurement": "substrate of BCRP efflux transporter", "setting": "BCRP", "result": "not a substrate"}, {"measurement": "substrate of P-gp efflux transporter", "setting": "P-gp", "result": "not a substrate"}, {"measurement": "Caco-2 permeability (in words)", "setting": "Caco-2 cells", "result": "highly permeable"}, {"measurement": "Papp A→B", "setting": "[3]", "result": 16, "unit": "×10⁻⁶ cm/s"}, {"measurement": "IC50", "setting": "CDK2/Cyclin E1", "result": "≤ 10", "unit": "nM"}]}, {"molecule": "CC(Oc1c(-c2cn[nH]c2)ncn2nc(NC3CCOCC3)nc12)C(F)(F)F", "note": "(single isomer, unassigned) [Example 8]", "values": [{"measurement": "IC50", "setting": "CDK2/Cyclin E1", "result": "≤ 10", "unit": "nM"}]}, {"molecule": "CC(Oc1c(-c2cn[nH]c2)ccn2nc(NC3CCOCC3)nc12)C(F)F", "note": "(single isomer, unassigned) [Example 6]", "values": [{"measurement": "IC50", "setting": "CDK2/Cyclin E1", "result": "≤ 10", "unit": "nM"}]}, {"molecule": "CC(Oc1c(-c2cn[nH]c2)ccn2nc(NC3CCOCC3)nc12)C(F)F", "note": "(single isomer, unassigned) [Example 5]", "values": [{"measurement": "IC50", "setting": "CDK2/Cyclin E1", "result": "≤ 10", "unit": "nM"}]}, {"molecule": "CC(Oc1c(-c2cn[nH]c2)ccn2nc(NC3CCOCC3)nc12)C(F)(F)F", "note": "(single isomer, unassigned) [Example 3]", "values": [{"measurement": "IC50", "setting": "CDK2/Cyclin E1", "result": "≤ 10", "unit": "nM"}]}, {"molecule": "CC(Oc1c(-c2cn[nH]c2)ccn2nc(NC3CCOCC3)nc12)C(F)(F)F", "note": "(single isomer, unassigned) [Example 4]", "values": [{"measurement": "IC50", "setting": "CDK2/Cyclin E1", "result": "≤ 10", "unit": "nM"}]}, {"molecule": "CC(Oc1c(-c2cn[nH]c2)ncn2nc(NC3CCOCC3)nc12)C(F)F", "note": "(single isomer, unassigned) [Example 9]", "values": [{"measurement": "IC50", "setting": "CDK2/Cyclin E1", "result": "≤ 10", "unit": "nM"}]}, {"molecule": "CC(Oc1c(-c2cn[nH]c2)ncn2nc(NC3CCOCC3)nc12)C(F)F", "note": "(single isomer, unassigned) [Example 10]", "values": [{"measurement": "IC50", "setting": "CDK2/Cyclin E1", "result": "≤ 10", "unit": "nM"}]}, {"molecule": "CC(C)Oc1c(-c2cn[nH]c2)ccn2nc(NC3CCOCC3)nc12", "note": "[Example 2, 8-Isopropoxy-7-(1H-pyrazol-4-yl)-N-(tetrahydro-2H-pyran-4-yl)-[1,2,4]triazolo[1,5-a]pyridin-2-amine]", "values": [{"measurement": "IC50", "setting": "CDK2/Cyclin E1", "result": "≤ 10", "unit": "nM"}]}]}
